Assay results as given in publication PMC11358882, “Neuroprotective Effects of Phenolic Constituents from Drynariae Rhizoma” (Pharmaceuticals, 2024).
Several values for one entry are separate records, joined by “and”; a condition that tells them apart may be missing. Equal entries are not always repeated.

Key:
AChE from electric eel = molecular target: T1, AChE from electric eel (Electrophorus electricus, UniProt O42275); assay: biochemical; assay type: biochemical; details: isolated compounds; mean ± SD, n = 3; ND = no detection using test concentration; read-out: IC50 AChE
T1 construct: purchased Sigma-Aldrich Co., St. Louis, USA
Procedure: (§1) The AChE- and BChE-inhibitory, MTT, and Th T assays were analyzed using a UV–visible (VIS) spectrophotometer (Biotek, EPOCH2, Winooski, VT, USA), ensuring accurate measurements. For BACE1- and MAO-B-inhibitory assays, a multimode microplate reader (SpectraMax M3, Molecular Devices, San Jose, CA, USA) was employed, providing precise readings. Analytical-grade DMSO from DEAJUNG Chemical, Korea, served as a solvent in the bioassays. Reagents and solvents, including AChE from electric eel, acetylthiocholine iodide (ATCh), BChE from equine serum, S-butyrylthiocholine iodide (BTCh), 5,5′-dithiobis [2-nitrobenzoic acid] […] Additionally, the BACE1-inhibitory assay utilized the BACE1 (β-secretase) FRET assay kit from PanVera® Corporation, Madison, USA, while the MAO-B-inhibitory assay employed the MAO-B Inhibitor Screening Kit (Fluorometric) ab284511 from Abcam plc Co., Cambridge, UK.
(§2) The inhibitory activities against cholinesterases (AChE and BChE) were evaluated using a spectrophotometric method previously developed by Ellman et al.. Specifically, ATCh and BTCh were used as substrates to measure the inhibitory effects on AChE and BChE, respectively. The assay mixture consisted of 140 μL of 0.1 M sodium phosphate buffer at pH 7.8, 20 μL of a 0.38 U/mL solution of either AChE or BChE, and 20 μL of the test sample solution. This mixture was thoroughly mixed and then incubated at room temperature for 15 min. […] Reactions were initiated by adding 10 μL of 0.5 mM DTNB and 10 μL of either 0.6 mM ATCh or BTCh. ChE-inhibitory activity was monitored by measuring the formation of the yellow 5-thio-2-nitrobenzoate anion at 412 nm over 15 min (Epoch, BioTek, Winooski, VT, USA), resulting from the reaction of DTNB and thiocholine released from ATCh or BTCh. All reactions were conducted in 96-well microplates and performed in triplicate. The percentage of inhibition (%) was determined using the following formula: inhibition (%)={(Ac−As)/Ac}×100 , where Ac represents the enzyme activity in the absence of the test sample, and As represents the enzyme activity in the presence of the test sample. The ChE-inhibitory activities of each sample were quantified in terms of IC50, which was calculated from the log–dose inhibition curve.

BChE from equine serum = molecular target: T2, BChE from equine serum (Equus caballus, UniProt P81908); assay: biochemical; assay type: biochemical; details: isolated compounds; mean ± SD, n = 3; ND = no detection using test concentration; read-out: IC50 BChE
T2 construct: BChE from equine serum; purchased Sigma-Aldrich Co., St. Louis, USA; host or cells: equine serum
Procedure: as §1, §2

β-secretase = assay: Western blot of β-secretase levels in APP-CHO cells; assay type: cell-based, Chinese hamster; details: 1.0 μM, 24 h
Procedure: APP-CHO cells were seeded in six-well plates at a density of 6 × 10^5 cells/1000 μL of medium per well and incubated at 37 °C overnight for cell attachment. Then, the medium was replaced with FBS-free RPMI 1640 for 1 h, followed by treatment with test samples at 37 °C. After 24 h, the cells were washed with PBS and lysed in Laemmli sample buffer. The collected cell lysates were boiled at 100 °C for 10 min. For Western blot analysis, 20 μg of proteins were separated by 7.5% SDS-PAGE and transferred to a PVDF membrane using Trans-Blot® Turbo TM (Bio-Rad, Hercules, CA, USA). The membrane was blocked with 5% skim milk in PBS for 1 h and incubated with primary antibodies overnight at 4 °C. The primary antibodies used were sAPPβ antibody, BACE1 antibody, and α-tubulin antibody diluted at 1:1000, 1:1000, and 1:25,000, respectively. After washing with PBS-T (0.1% Tween 20 in PBS) three times for 10 min each, secondary antibodies, diluted to 1:2500, were incubated for 1 h. Protein detection was performed using ECL solution reagent and protein visualization (ChemiDoc^TM XRS+., Bio-Rad, Hercules, CA, USA). The signal intensity of the bands was quantified and normalized to the signal intensity of the α-tubulin band. Results were expressed as a percentage of DMSO-treated control.

Aβ1-42 = molecular target: T3, Aβ1-42 (Homo sapiens, UniProt P05067); assay: Thioflavin T assay, disaggregation of preformed Aβ aggregates; assay type: biochemical; details: 24 h with Aβ pre-aggregated for 24 h
T3 construct: Aβ1-42 used for the Th T assay was purchased from GL Biochem, Shanghai, China; purchased GL Biochem, Shanghai, China
Procedure: The Th T assay was conducted to assess the aggregation of Aβ into oligomers and fibrils. Aβ1-42 was dissolved in DMSO at a concentration of 1 mg/mL, and test samples were also dissolved in DMSO. Aβ1-42 (20 μM) was incubated with various concentrations of test samples at 37 °C for 24 h to evaluate the effects of test samples on Aβ aggregation. Subsequently, 3 μM of Th T was added, and fluorescence was measured after 30 min using an E-max precision microplate reader with excitation at 442 nm and emission at 485 nm (Epoch, BioTek, Winooski, VT, USA). Aβ treated with DMSO only served as a control, and each assay was performed in triplicate. Then, the Th T assay was performed to assess the effects of test samples on the disaggregation of preformed Aβ aggregates. Briefly, 20 μM of Aβ1-42 was incubated at 37 °C for 24 h. Various concentrations of test samples were then added and incubated at 37 °C for an additional 24 h. Subsequently, 3 μM of Th T was added, and fluorescence was measured after 30 min using an E-max precision microplate reader with excitation at 442 nm and emission at 485 nm (Epoch, BioTek, Winooski, VT, USA). Aβ treated with DMSO only served as a control, and each assay was performed in triplicate.

T3 sequence (P05067 672-713 limits assumed): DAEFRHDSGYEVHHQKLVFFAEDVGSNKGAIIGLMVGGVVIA
T1 sequence (O42275 24-633): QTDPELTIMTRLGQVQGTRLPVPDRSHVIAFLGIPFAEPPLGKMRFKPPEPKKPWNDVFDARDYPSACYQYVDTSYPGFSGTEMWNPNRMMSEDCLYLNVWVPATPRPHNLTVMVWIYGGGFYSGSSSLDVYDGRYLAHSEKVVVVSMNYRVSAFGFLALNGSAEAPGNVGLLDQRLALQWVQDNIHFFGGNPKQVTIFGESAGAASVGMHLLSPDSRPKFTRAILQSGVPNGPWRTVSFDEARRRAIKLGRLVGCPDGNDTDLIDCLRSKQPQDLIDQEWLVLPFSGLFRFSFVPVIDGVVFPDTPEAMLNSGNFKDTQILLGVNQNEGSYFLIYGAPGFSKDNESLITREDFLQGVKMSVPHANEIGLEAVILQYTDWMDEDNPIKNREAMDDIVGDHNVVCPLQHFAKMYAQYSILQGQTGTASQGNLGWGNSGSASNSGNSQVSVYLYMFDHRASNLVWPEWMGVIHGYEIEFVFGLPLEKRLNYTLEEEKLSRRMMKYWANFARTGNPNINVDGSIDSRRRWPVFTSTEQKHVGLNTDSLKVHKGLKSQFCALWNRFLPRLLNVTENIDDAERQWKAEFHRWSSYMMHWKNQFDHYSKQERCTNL
T2 sequence (P81908 whole entry): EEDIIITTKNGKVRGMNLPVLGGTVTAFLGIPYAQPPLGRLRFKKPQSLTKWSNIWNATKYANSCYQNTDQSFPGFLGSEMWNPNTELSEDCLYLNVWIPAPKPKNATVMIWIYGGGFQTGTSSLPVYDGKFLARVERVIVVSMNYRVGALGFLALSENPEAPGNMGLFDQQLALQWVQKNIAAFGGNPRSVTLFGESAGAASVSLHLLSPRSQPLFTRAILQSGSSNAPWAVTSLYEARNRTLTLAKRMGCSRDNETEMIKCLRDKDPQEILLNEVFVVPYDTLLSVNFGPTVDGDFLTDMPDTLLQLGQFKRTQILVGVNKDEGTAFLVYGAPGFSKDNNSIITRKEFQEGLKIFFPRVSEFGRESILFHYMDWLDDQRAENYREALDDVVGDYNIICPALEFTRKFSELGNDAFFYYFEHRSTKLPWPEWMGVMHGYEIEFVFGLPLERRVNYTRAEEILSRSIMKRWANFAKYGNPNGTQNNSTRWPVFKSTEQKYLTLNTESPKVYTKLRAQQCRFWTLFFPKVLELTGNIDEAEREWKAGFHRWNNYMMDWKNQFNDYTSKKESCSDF

SMILES | IC50 (AChE from electric eel) | IC50 (BChE from equine serum) | reduction of β-secretase levels compared to DMSO-treated controls (β-secretase) | degradation of preformed Aβ aggregates (Aβ1-42; 1.0 μM) | degradation of preformed Aβ aggregates (Aβ1-42; 0.5 μM)
C[C@@H]1O[C@@H](Oc2c(-c3ccc(O)cc3)oc3cc(O[C@@H]4O[C@H](CO)[C@@H](O)[C@H](O)[C@H]4O)cc(O)c3c2=O)[C@H](O)[C@H](O)[C@H]1O [Compound 6, kaempferol 3-O-rhamnoside 7-O-glucoside] | 353.43 ± 0.32 µM | 32.6 ± 5.66 µM | 30% | approximately 45% | –
O=c1c(O[C@@H]2O[C@H](CO)[C@@H](O)[C@H](O)[C@H]2O)c(-c2ccc(O)cc2)oc2cc(O[C@@H]3O[C@@H](CO)[C@H](O)[C@H]3O)cc(O)c12 [Compound 7, kaempferol 3-o-b-d-glucopyranoside-7-o-a-L-arabinofuranoside] | 47.33 ± 0.22 µM | 28.8 ± 0.31 µM | 40% and 30% | – | ~60%
